Measurements reported in patent US20250163104A1, “MACROCYCLIC IMMUNOMODULATORS” (priority 2021, published 2025).
Where a SMILES comes first, the peptide text is derived from it. Bridges are numbered along the chain shown (N, C = ends). [ ]: non-standard residue; d: D form. The star is where a group is joined. Phe(4-COOH) = N[C@@H](Cc1ccc(C(=O)O)cc1)C(=O)O; Bip = N[C@@H](Cc1ccc(-c2ccccc2)cc1)C(=O)O; Phe(3-Me) = Cc1cccc(C[C@H](N)C(=O)O)c1; 4Pal = N[C@@H](Cc1ccncc1)C(=O)O; 2Thi = N[C@@H](Cc1cccs1)C(=O)O; Cha = N[C@@H](CC1CCCCC1)C(=O)O; Cit = NC(=O)NCCC[C@H](N)C(=O)O; Tle = CC(C)(C)[C@H](N)C(=O)O; dDab = NCC[C@@H](N)C(=O)O; Carboxymethyl = O=C(O)C*; Orn = NCCC[C@H](N)C(=O)O; Pra = C#CC[C@H](N)C(=O)O; Dab = NCC[C@H](N)C(=O)O; Dap = NC[C@H](N)C(=O)O

target: T1, human PD-1 / PD-L1-Ig binding on Jurkat cell line over-expressing human PD-1 (Jurkat-PD-1) (Homo sapiens, UniProt Q15116); experiment: Jurkat-PD-1 Cell Binding High-Content Screening Assay (CBA); type: cell-based; settings: Jurkat HPD1_PDL1 IC50, Jurkat-PD-1 cells, PE-labeled PD-L1-Ig 20 nM final
T1 construct: expressed in transfected cells; host or cells: Jurkat
Procedure: Example 3. Jurkat-PD-1 Cell Binding High-Content Screening Assay (CBA)
Jurkat-PD-1 Cell Binding High-Content Screening Assay (CBA). Phycoerythrin (PE) was covalently linked to the Ig epitope tag of human PD-L1-Ig and fluorescently-labeled PD-L1-Ig was used for binding studies with a Jurkat cell line over-expressing human PD-1 (Jurkat-PD-1). Briefly, 8×10^3 Jurkat-hPD-1 cells were seeded into 384 well plates in 20 μl of DMEM supplemented with 10% fetal calf serum. 100 nL of compound was added to cells followed by incubation at 37° C. for 2 h. Then, 5 μl of PE-labeled PD-L1-Ig (20 nM final), diluted in DMEM supplemented with 10% fetal calf serum. After 1 hour incubation, cells were fixed with 4% paraformaldehyde in dPBS containing 10 μg/ml Hoechst 33342 and then washed 3x in 100 μl dPBS. Data was collected and processed using a Cell Insight NXT High Content Imager and associated software.

T1 sequence (Q15116 25-288): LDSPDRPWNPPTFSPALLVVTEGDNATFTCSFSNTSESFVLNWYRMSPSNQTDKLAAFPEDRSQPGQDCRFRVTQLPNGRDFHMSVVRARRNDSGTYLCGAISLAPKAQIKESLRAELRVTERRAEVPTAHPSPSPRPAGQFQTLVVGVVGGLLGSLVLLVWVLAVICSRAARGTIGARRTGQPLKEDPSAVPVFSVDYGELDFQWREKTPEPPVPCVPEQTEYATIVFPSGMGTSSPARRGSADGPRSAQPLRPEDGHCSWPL

SMILES | IC50 [nM]
CC(C)C[C@H]1NC(=O)[C@H](CCCN)NC(=O)[C@H](Cc2ccc(OCc3ccccc3)cc2)NC(=O)[C@H](Cc2ccc(-c3ccccc3)cc2)NC(=O)[C@H](C(C)C)NC(=O)[C@H](Cc2c[nH]c3ccccc23)NC(=O)[C@H](CC(=O)O)NC(=O)[C@H](Cc2ccc(OCC(=O)O)cc2)NC(=O)[C@H](CN)NC(=O)CSC[C@@H](C(=O)N[C@@H](C)C(N)=O)NC(=O)[C@H]([C@@H](C)O)NC(=O)[C@H](C(C)C)NC(=O)[C@H](CC2CCCCC2)NC(=O)[C@H](CCN)NC1=O [Compound 1530] | 94.9

same assay, conditions: Jurkat-PD-1 cells, PE-labeled PD-L1-Ig 20 nM final; read-out: Jurkat HPD1_PDL1 IC50

IC50 [nM] | SMILES
9.3 | C#CC[C@H](NC(=O)[C@H](CCN)NC(=O)[C@@H]1CSCC(=O)N[C@@H]([C@@H](C)O)C(=O)N[C@@H](Cc2ccc(OCC(=O)O)cc2)C(=O)N[C@@H](CC(=O)O)C(=O)N[C@@H](Cc2cccc(C)c2)C(=O)N[C@@H](Cc2ccc(C(=O)O)cc2)C(=O)N[C@@H](Cc2ccc(-c3ccccc3)cc2)C(=O)N[C@@H](Cc2ccc(C(=O)O)cc2)C(=O)N[C@@H](CCCN)C(=O)N[C@H](CC(C)C)C(=O)N[C@@H](CCN)C(=O)N[C@@H](CC2CCCCC2)C(=O)N[C@@H](C(C)C)C(=O)N[C@@H](CCC(=O)O)C(=O)N1)C(=O)O [Compound 1824] ({CH2CO}-TY(Carboxymethyl)D[Phe(3-Me)][Phe(4-COOH)][Bip][Phe(4-COOH)][Orn][dL][Dab][Cha]VEC[Dab][Pra]-OH; thioether N-14)
9.5 | Cc1cccc(C[C@@H]2NC(=O)[C@H](CC(=O)O)NC(=O)[C@H](Cc3ccncc3)NC(=O)[C@H](CN)NC(=O)CSC[C@@H](C(=O)N[C@@H](C)C(N)=O)NC(=O)[C@H]([C@@H](C)O)NC(=O)[C@H](C(C)C)NC(=O)[C@H](CC3CCCCC3)NC(=O)[C@H](CCN)NC(=O)[C@@H](Cc3ccccc3)NC(=O)[C@H](CCCN)NC(=O)[C@H](CCC(=O)O)NC(=O)[C@H](Cc3ccc(-c4ccccc4)cc3)NC(=O)[C@H](C(C)C)NC2=O)c1 [Compound 1429] ({CH2CO}-[Dap][4Pal]D[Phe(3-Me)]V[Bip]E[Orn][dF][Dab][Cha]VTCA-NH2; thioether N-14)
14.4 | Cc1cccc(C[C@@H]2NC(=O)[C@H](CC(=O)O)NC(=O)[C@H](Cc3ccc(C(=O)O)cc3)NC(=O)[C@H](Cc3ccncc3)NC(=O)CSC[C@@H](C(=O)N[C@@H](C)C(N)=O)NC(=O)[C@H]([C@@H](C)O)NC(=O)[C@H](C(C)C)NC(=O)[C@H](CC3CCCCC3)NC(=O)[C@H](CCN)NC(=O)[C@@H](CC(C)C)NC(=O)[C@H](CCCN)NC(=O)[C@H](C3CCCCC3)NC(=O)[C@H](Cc3ccc(-c4ccccc4)cc3)NC(=O)[C@H](C(C)C)NC2=O)c1 [Compound 1614]
12.9 | Cc1cccc(C[C@@H]2NC(=O)[C@H](CC(=O)O)NC(=O)[C@H](Cc3ccc(OCC(=O)O)cc3)NC(=O)[C@H](CN)NC(=O)CSC[C@@H](C(=O)N[C@@H](CCN)C(N)=O)NC(=O)[C@H](CCCN)NC(=O)[C@H](C(C)C)NC(=O)[C@H](CC3CCCCC3)NC(=O)[C@H](CCN)NC(=O)[C@@H](CC(C)C)NC(=O)[C@@H](CCN)NC(=O)[C@H](Cc3ccc(O)cc3)NC(=O)[C@H](Cc3ccc(-c4ccccc4)cc3)NC(=O)[C@H](Cc3ccc(O)cc3)NC2=O)c1 [Compound 2039] ({CH2CO}-[Dap]Y(Carboxymethyl)D[Phe(3-Me)]Y[Bip]Y[dDab][dL][Dab][Cha]V[Orn]C[Dab]-NH2; thioether N-14)
6.4 | CC(C)C[C@H]1NC(=O)[C@H](CCCN)NC(=O)[C@H](C(C)C)NC(=O)[C@H](Cc2ccc(-c3ccccc3)cc2)NC(=O)[C@H](C(C)C)NC(=O)[C@H](Cc2c[nH]c3ccccc23)NC(=O)[C@H](CC(=O)O)NC(=O)[C@H](Cc2ccc(OCC(=O)O)cc2)NC(=O)[C@H](CN)NC(=O)CSC[C@@H](C(=O)N[C@@H](C)C(N)=O)NC(=O)[C@H](CCCNC(=N)N)NC(=O)[C@H](C(C)C)NC(=O)[C@H](CC2CCCCC2)NC(=O)[C@H](CCN)NC1=O [Compound 1747] ({CH2CO}-[Dap]Y(Carboxymethyl)DWV[Bip]V[Orn][dL][Dab][Cha]VRCA-NH2; thioether N-14)
19.3 | CC(C)C[C@@H]1NC(=O)[C@H](CCCCN)NC(=O)[C@@H](CC(C)C)NC(=O)[C@H](CCN)NC(=O)[C@H](Cc2cnc[nH]2)NC(=O)[C@H](Cc2ccc(-c3ccccc3)cc2)NC(=O)[C@H](C(C)C)NC(=O)[C@H](Cc2c[nH]c3ccccc23)NC(=O)[C@H](CC(=O)O)NC(=O)[C@H](Cc2ccc(O)cc2)NC(=O)[C@H](CC(N)=O)NC(=O)CSC[C@@H](C(=O)N[C@@H](C)C(N)=O)NC(=O)[C@H](CO)NC(=O)[C@H](C(C)C)NC1=O [Compound 1138] ({CH2CO}-NYDWV[Bip]H[Dab][dL]KLVSCA-NH2; thioether N-14)
16.5 | CC(C)C[C@H]1NC(=O)[C@H](CCCN)NC(=O)[C@H](CCC(=O)O)NC(=O)[C@H](Cc2ccc(-c3ccccc3)cc2)NC(=O)[C@H](C(C)C)NC(=O)[C@H](Cc2c[nH]c3ccccc23)NC(=O)[C@H](CC(=O)O)NC(=O)[C@H](Cc2cccs2)NC(=O)[C@H](Cc2ccncc2)NC(=O)CSC[C@@H](C(=O)N[C@@H](C)C(N)=O)NC(=O)[C@H]([C@@H](C)O)NC(=O)[C@H](C(C)C)NC(=O)[C@H](CC2CCCCC2)NC(=O)[C@H](CCN)NC1=O [Compound 2194] ({CH2CO}-[4Pal][2Thi]DWV[Bip]E[Orn][dL][Dab][Cha]VTCA-NH2; thioether N-14)
9.4 | Cc1cccc(C[C@@H]2NC(=O)[C@H](CC(=O)O)NC(=O)[C@H](Cc3ccc(C(=O)O)cc3)NC(=O)[C@H](Cc3ccncc3)NC(=O)CSC[C@@H](C(=O)N[C@@H](CCN)C(N)=O)NC(=O)[C@H](CO)NC(=O)[C@H](C(C)(C)C)NC(=O)[C@H](CC3CCCCC3)NC(=O)[C@H](CCN)NC(=O)[C@@H](CC(C)C)NC(=O)[C@H](CCCN)NC(=O)[C@H](Cc3ccc(OCC(=O)O)cc3)NC(=O)[C@H](Cc3ccc(-c4ccccc4)cc3)NC(=O)[C@H](Cc3ccc(OCC(=O)O)cc3)NC2=O)c1 [Compound 2294] ({CH2CO}-[4Pal][Phe(4-COOH)]D[Phe(3-Me)]Y(Carboxymethyl)[Bip]Y(Carboxymethyl)[Orn][dL][Dab][Cha][Tle]SC[Dab]-NH2; thioether N-14)
10.1 | CC(C)C[C@@H]1NC(=O)[C@H](Cc2c[nH]c3ccccc23)NC(=O)[C@H](CC(=O)O)NC(=O)[C@H](Cc2ccncc2)NC(=O)[C@H](CN)NC(=O)CSC[C@@H](C(=O)NCC(N)=O)NC(=O)[C@H](CO)NC(=O)[C@H](C(C)C)NC(=O)[C@H](CC2CCCCC2)NC(=O)[C@H](CC(N)=O)NC(=O)[C@@H](CC(C)C)NC(=O)[C@H](CN)NC(=O)[C@H](C(C)C)NC(=O)[C@H](Cc2ccc(-c3ccccc3)cc2)NC1=O [Compound 1395] ({CH2CO}-[Dap][4Pal]DWL[Bip]V[Dap][dL]N[Cha]VSCG-NH2; thioether N-14)
37.3 | CC(C)C[C@@H]1NC(=O)[C@H](CCN)NC(=O)[C@@H](CC(C)C)NC(=O)[C@H](CN)NC(=O)[C@H](CCCNC(N)=O)NC(=O)[C@H](Cc2ccc(-c3ccccc3)cc2)NC(=O)[C@H](C(C)C)NC(=O)[C@H](Cc2c[nH]c3ccccc23)NC(=O)[C@H](CC(=O)O)NC(=O)[C@H](Cc2ccc(O)cc2)NC(=O)[C@H](CC(N)=O)NC(=O)CSC[C@@H](C(=O)N[C@@H](C)C(N)=O)NC(=O)[C@H]([C@@H](C)O)NC(=O)[C@H](C(C)C)NC1=O [Compound 1024] ({CH2CO}-NYDWV[Bip][Cit][Dap][dL][Dab]LVTCA-NH2; thioether N-14)
20.8 | CC(C)C[C@@H]1NC(=O)[C@H](CCN)NC(=O)[C@@H](CC(C)C)NC(=O)[C@H](CCCN)NC(=O)[C@H](C(C)C)NC(=O)[C@H](Cc2ccc(-c3ccccc3)cc2)NC(=O)[C@H](C(C)C)NC(=O)[C@H](Cc2c[nH]c3ccccc23)NC(=O)[C@H](CC(=O)O)NC(=O)[C@H](Cc2ccc(OCC(=O)O)cc2)NC(=O)[C@H](Cc2ccc(OCC(=O)O)cc2)NC(=O)CSC[C@@H](C(=O)N[C@@H](C)C(N)=O)NC(=O)[C@H]([C@@H](C)O)NC(=O)[C@H](C(C)C)NC1=O [Compound 1245] ({CH2CO}-Y(Carboxymethyl)Y(Carboxymethyl)DWV[Bip]V[Orn][dL][Dab]LVTCA-NH2; thioether N-14)
9.7 | CC(C)C[C@H]1NC(=O)[C@H](CCCN)NC(=O)[C@H](C(C)C)NC(=O)[C@H](Cc2ccc(-c3ccccc3)cc2)NC(=O)[C@H](C(C)C)NC(=O)[C@H](Cc2c[nH]c3ccccc23)NC(=O)[C@H](CC(=O)O)NC(=O)[C@H](Cc2ccc(O)cc2)NC(=O)[C@H](Cc2ccc(OCC(=O)O)cc2)NC(=O)CSC[C@@H](C(=O)N[C@@H](C)C(N)=O)NC(=O)[C@H]([C@@H](C)O)NC(=O)[C@H](C(C)C)NC(=O)[C@H](CC2CCCCC2)NC(=O)[C@H](CCN)NC1=O [Compound 1173]
22.3 | CC(C)C[C@@H]1NC(=O)[C@H](CCN)NC(=O)[C@@H](CC(C)C)NC(=O)[C@H](CCCN)NC(=O)[C@H](CCCNC(=N)N)NC(=O)[C@H](Cc2ccc(-c3ccccc3)cc2)NC(=O)[C@H](C(C)C)NC(=O)[C@H](Cc2c[nH]c3ccccc23)NC(=O)[C@H](CC(=O)O)NC(=O)[C@H](Cc2ccncc2)NC(=O)[C@H](CN)NC(=O)CSC[C@@H](C(=O)N[C@@H](C)C(N)=O)NC(=O)[C@H]([C@@H](C)O)NC(=O)[C@H](C(C)C)NC1=O [Compound 1244] ({CH2CO}-[Dap][4Pal]DWV[Bip]R[Orn][dL][Dab]LVTCA-NH2; thioether N-14)
